# Measured values reported in ChEMBL document CHEMBL3885881, “DrugMatrix”.
# Organism: Rattus norvegicus
# Assay: DrugMatrix - Regimen: Daily Repeat
# Assay type: toxicity, organism-based, Sprague-Dawley
# Design: regimen Daily Repeat, gender Male, age 6-8 weeks
# Conditions: in vivo, iv, vehicle 100 % SALINE; for ABSOLUTE BASOPHIL / ABSOLUTE EOSINOPHIL / ABSOLUTE LYMPHOCYTE / ABSOLUTE MONOCYTE / ABSOLUTE SEGMENTED NEUTROPHIL / BASOPHIL / EOSINOPHIL / ERYTHROCYTE COUNT / HEMATOCRIT / HEMOGLOBIN / LEUKOCYTE COUNT / LYMPHOCYTE / MEAN CORPUSCULAR HEMOGLOBIN / MEAN CORPUSCULAR HEMOGLOBIN CONCENTRATION / MEAN CORPUSCULAR VOLUME / MONOCYTE / NEUTROPHIL / NUCLEATED RED BLOOD CELLS / PLATELET COUNT: tissue Blood; for ALANINE AMINOTRANSFERASE / ALBUMIN / ALKALINE PHOSPHATASE / ASPARTATE AMINOTRANSFERASE / BLOOD UREA NITROGEN / CARBON DIOXIDE / CHLORIDE / CHOLESTEROL / CREATINE PHOSPHOKINASE / CREATININE / GLUCOSE / LACTATE DEHYDROGENASE / LIPASE / PHOSPHORUS / POTASSIUM / SODIUM / TOTAL BILIRUBIN / TOTAL PROTEIN / URIC ACID: tissue Plasma
# [1] = 0 mg/kg, 72 h, dose level Control, time 3 day
# [2] = 0 mg/kg, 120 h, dose level Control, time 5 day
# [3] = 10 mg/kg, 72 h, dose level Low, time 3 day
structure (smiles),measurement,setting,value
O=C(O)P(=O)(O)O [FOSCARNET],ABSOLUTE BASOPHIL,[1],0 CELLS/uL
same,ABSOLUTE EOSINOPHIL,[1],247.67 CELLS/uL
same,ABSOLUTE LYMPHOCYTE,[1],13190.83 CELLS/uL
same,ABSOLUTE MONOCYTE,[1],307.67 CELLS/uL
same,ABSOLUTE SEGMENTED NEUTROPHIL,[1],1220.5 CELLS/uL
same,BASOPHIL,[1],0%
same,EOSINOPHIL,[1],1.67%
same,ERYTHROCYTE COUNT,[1],5.47 x10E6/uL
same,HEMATOCRIT,[1],33.98%
same,HEMOGLOBIN,[1],12.65 G/DL
same,LEUKOCYTE COUNT,[1],14.97 x10E3/uL
same,LYMPHOCYTE,[1],88.17%
same,MEAN CORPUSCULAR HEMOGLOBIN,[1],23.17 pg
same,MEAN CORPUSCULAR HEMOGLOBIN CONCENTRATION,[1],37.23 G/DL
same,MEAN CORPUSCULAR VOLUME,[1],62.25 fL
same,MONOCYTE,[1],2%
same,NEUTROPHIL,[1],8.17%
same,NUCLEATED RED BLOOD CELLS,[1],0 /100WBC
same,PLATELET COUNT,[1],1307.17 x10E3/uL
same,ALANINE AMINOTRANSFERASE,[1],39.67 u/L
same,ALBUMIN,[1],4.08 G/DL
same,ALKALINE PHOSPHATASE,[1],383.17 u/L
same,ASPARTATE AMINOTRANSFERASE,[1],88.83 u/L
same,BLOOD UREA NITROGEN,[1],18.5 mg/dL
same,CARBON DIOXIDE,[1],27.5 mmol/L
same,CHLORIDE,[1],103 MEQ/L
same,CHOLESTEROL,[1],67.33 mg/dL
same,CREATINE PHOSPHOKINASE,[1],414.67 u/L
same,CREATININE,[1],0.19 mg/dL
same,GLUCOSE,[1],149.33 mg/dL
same,LACTATE DEHYDROGENASE,[1],536.83 u/L
same,LIPASE,[1],8.83 u/L
same,PHOSPHORUS,[1],11.13 mg/dL
same,POTASSIUM,[1],6.23 MEQ/L
same,SODIUM,[1],144.42 MEQ/L
same,TOTAL BILIRUBIN,[1],0.18 mg/dL
same,TOTAL PROTEIN,[1],5.57 G/DL
same,URIC ACID,[1],1.23 mg/dL
same,ABSOLUTE BASOPHIL,[2],0 CELLS/uL
same,ABSOLUTE EOSINOPHIL,[2],158.83 CELLS/uL
same,ABSOLUTE LYMPHOCYTE,[2],13517.17 CELLS/uL
same,ABSOLUTE MONOCYTE,[2],352.67 CELLS/uL
same,ABSOLUTE SEGMENTED NEUTROPHIL,[2],1104.67 CELLS/uL
same,BASOPHIL,[2],0%
same,EOSINOPHIL,[2],1%
same,ERYTHROCYTE COUNT,[2],5.73 x10E6/uL
same,HEMATOCRIT,[2],36.85%
same,HEMOGLOBIN,[2],13.67 G/DL
same,LEUKOCYTE COUNT,[2],15.13 x10E3/uL
same,LYMPHOCYTE,[2],89.5%
same,MEAN CORPUSCULAR HEMOGLOBIN,[2],23.87 pg
same,MEAN CORPUSCULAR HEMOGLOBIN CONCENTRATION,[2],37.1 G/DL
same,MEAN CORPUSCULAR VOLUME,[2],64.33 fL
same,MONOCYTE,[2],2.33%
same,NEUTROPHIL,[2],7.17%
same,NUCLEATED RED BLOOD CELLS,[2],0.17 /100WBC
same,PLATELET COUNT,[2],1266 x10E3/uL
same,ALANINE AMINOTRANSFERASE,[2],49.17 u/L
same,ALBUMIN,[2],4.22 G/DL
same,ALKALINE PHOSPHATASE,[2],352.67 u/L
same,ASPARTATE AMINOTRANSFERASE,[2],95.17 u/L
same,BLOOD UREA NITROGEN,[2],18.83 mg/dL
same,CARBON DIOXIDE,[2],25.67 mmol/L
same,CHLORIDE,[2],102.67 MEQ/L
same,CHOLESTEROL,[2],66.83 mg/dL
same,CREATINE PHOSPHOKINASE,[2],550.33 u/L
same,CREATININE,[2],0.23 mg/dL
same,GLUCOSE,[2],186.17 mg/dL
same,LACTATE DEHYDROGENASE,[2],471.33 u/L
same,LIPASE,[2],8.67 u/L
same,PHOSPHORUS,[2],12.3 mg/dL
same,POTASSIUM,[2],6.35 MEQ/L
same,SODIUM,[2],143.57 MEQ/L
same,TOTAL BILIRUBIN,[2],0.18 mg/dL
same,TOTAL PROTEIN,[2],6.05 G/DL
same,URIC ACID,[2],2 mg/dL
same,ABSOLUTE BASOPHIL,[3],0 CELLS/uL
same,ABSOLUTE EOSINOPHIL,[3],119 CELLS/uL
same,ABSOLUTE LYMPHOCYTE,[3],13526 CELLS/uL
same,ABSOLUTE MONOCYTE,[3],339.33 CELLS/uL
same,ABSOLUTE SEGMENTED NEUTROPHIL,[3],1849 CELLS/uL
same,BASOPHIL,[3],0%
same,EOSINOPHIL,[3],1%
same,ERYTHROCYTE COUNT,[3],5.59 x10E6/uL
same,HEMATOCRIT,[3],35.27%
same,HEMOGLOBIN,[3],13.4 G/DL
same,LEUKOCYTE COUNT,[3],15.83 x10E3/uL
same,LYMPHOCYTE,[3],86%
same,MEAN CORPUSCULAR HEMOGLOBIN,[3],24.03 pg
same,MEAN CORPUSCULAR HEMOGLOBIN CONCENTRATION,[3],38 G/DL
same,MEAN CORPUSCULAR VOLUME,[3],63.2 fL
same,MONOCYTE,[3],2%
same,NEUTROPHIL,[3],11%
same,NUCLEATED RED BLOOD CELLS,[3],0.33 /100WBC
same,PLATELET COUNT,[3],1244.67 x10E3/uL
same,ALANINE AMINOTRANSFERASE,[3],51.33 u/L
same,ALBUMIN,[3],4.37 G/DL
same,ALKALINE PHOSPHATASE,[3],431.67 u/L
same,ASPARTATE AMINOTRANSFERASE,[3],102 u/L
same,BLOOD UREA NITROGEN,[3],16.67 mg/dL
same,CARBON DIOXIDE,[3],26.67 mmol/L
same,CHLORIDE,[3],102 MEQ/L
same,CHOLESTEROL,[3],79.67 mg/dL
same,CREATINE PHOSPHOKINASE,[3],558.33 u/L
same,CREATININE,[3],0.23 mg/dL
same,GLUCOSE,[3],150.33 mg/dL
same,LACTATE DEHYDROGENASE,[3],837 u/L
same,LIPASE,[3],9.33 u/L
same,PHOSPHORUS,[3],11.7 mg/dL
same,POTASSIUM,[3],6.65 MEQ/L
same,SODIUM,[3],144.07 MEQ/L
same,TOTAL BILIRUBIN,[3],0.23 mg/dL
same,TOTAL PROTEIN,[3],5.83 G/DL
same,URIC ACID,[3],1.27 mg/dL
